Experimental data from PubChem BioAssay (NCI).
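Interpolation was linear, between the two tested concentrations surrounding the appropriate level; five concentrations were tested over 48 hours in 96-well plates. GI50 is the concentration that inhibits growth by half. Definition used: TGI = concentration required for complete inhibition of growth.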

What was measured:
Experiment in all cases: inhibition of tumour cell growth, NCI panel, 48 h
HCT-15 colon = tested on: HCT-15 colon
NCI/ADR-RES ovarian = tested on: NCI/ADR-RES ovarian
SK-MEL-2 melanoma = tested on: SK-MEL-2 melanoma
M14 melanoma = tested on: M14 melanoma
UO-31 renal = tested on: UO-31 renal
T-47D breast = tested on: T-47D breast
HCT-116 colon = tested on: HCT-116 colon
SW-620 colon = tested on: SW-620 colon
MALME-3M melanoma = tested on: MALME-3M melanoma
K-562 leukemia = tested on: K-562 leukemia

Compound | GI50 (HCT-15 colon) [µM] | TGI (HCT-15 colon) [µM] | GI50 (NCI/ADR-RES ovarian) [µM] | TGI (NCI/ADR-RES ovarian) [µM] | GI50 (SK-MEL-2 melanoma) [µM] | TGI (SK-MEL-2 melanoma) [µM] | GI50 (M14 melanoma) [µM] | TGI (M14 melanoma) [µM] | GI50 (UO-31 renal) [µM] | TGI (UO-31 renal) [µM] | GI50 (T-47D breast) [µM] | TGI (T-47D breast) [µM] | GI50 (HCT-116 colon) [µM] | TGI (HCT-116 colon) [µM] | GI50 (SW-620 colon) [µM] | TGI (SW-620 colon) [µM] | GI50 (MALME-3M melanoma) [µM] | TGI (MALME-3M melanoma) [µM] | GI50 (K-562 leukemia) [µM] | TGI (K-562 leukemia) [µM]
O=C(Cc1csc2nc(-c3ccc(Br)cc3)cn12)N/N=C/c1ccc(Cl)cc1Cl | 25.5 | 73.2 | 17.2 | 52.3 | 72 | > 100 | 32.9 | > 100 | 72.4 | > 100 | > 100 | > 100 | 17.1 | 36.8 | 23 | 60.2 |  |  |  | 
COc1ccc(/C=C\c2cc(OC)c(OC)c(OC)c2)cc1OCC(=O)Nc1nc2ccccc2s1 | 0.0519 | > 100 |  |  | 0.187 | > 100 | 0.0527 | > 100 | 0.381 | > 100 | 1.59 | > 69.6 | 0.0439 | > 100 | 0.0359 | > 100 | 0.338 | > 85.3 | 0.0423 | > 100
CCOc1ccc(NCC2CC/C(=C\c3ccc(Cl)cc3)C2=O)cc1 (stereo not given) |  | 23.7 |  |  |  | 58.7 |  | 50.6 |  | > 58.5 |  |  |  | > 62.9 |  | 39.6 |  | > 87.5 |  | 34.9
O=C1c2cccc3c(Cl)ccc(c23)C(=O)N1CCCN1CCN(CCCN2C(=O)c3cccc4c(Cl)ccc(c34)C2=O)CC1 |  | > 100 |  |  |  | > 100 |  | > 100 |  | > 100 |  |  |  | > 100 |  | > 100 |  | > 100 |  | > 100
CCC(C)c1cccc(C)c1NC(=O)C(=O)Cc1nc2ccccc2s1 (stereo not given) |  | > 100 |  |  |  | > 100 |  | > 100 |  | > 100 |  |  |  | > 100 |  | > 100 |  | > 100 |  | > 100
O=C1CCCC(O)=C1SC1=C(O)CCCC1=O |  | > 100 |  |  |  | > 100 |  | > 100 |  | > 100 |  |  |  | > 100 |  | > 100 |  | > 100 |  | > 100
O=C1CCNC(=O)NC1 |  | > 100 |  |  |  | > 100 |  | > 100 |  | > 100 |  |  |  | > 100 |  | > 100 |  | > 100 |  | > 100
Cc1cc(NCc2cc(Nc3ccnc4cc(Cl)ccc34)ccc2F)nc(N2CCSCC2)n1 | 1.54 | 3.54 | 1.55 | 4.02 | 2.15 | 4.71 |  |  | 1.38 | 2.87 | 1.97 | 4.71 | 1.18 | 2.46 |  |  |  |  | 0.906 | 3.35
NC(CCc1ncc(-c2ccccc2)s1)C(=O)O (stereo not given) |  | > 100 |  |  |  |  |  | > 100 |  | > 100 |  |  |  | > 100 |  | > 100 |  | > 100 |  | > 100
CN(C)c1ccc(Nc2c3ccccc3nc3cc(NC(=O)CCN4CCCC4)ccc23)cc1 | 0.816 | 2.2 | 2.91 | 12.9 | 1.75 | 3.33 | 0.692 | 2 | 0.595 | 1.92 | 0.455 | 2.43 | 0.346 | 1.61 | 0.252 | 1.68 | 1.12 | 2.41 |  | 
COc1ccc(C(=O)/C=C/c2cc(-c3ccc4c(c3)OCO4)n[nH]2)cc1OC | 2.81 | > 100 |  |  | 6.93 | 23.2 | 6.36 | 21.4 | 2.32 | 10.1 | 3.23 | 26.1 | 2.43 | 7.99 | 2.05 | 4.81 | 7.32 | 22.8 | 2.47 | 16.7
CNc1ccc([N+](=O)[O-])c2c(NCCCN(C)C)ccnc12 |  | > 100 |  |  |  | > 100 |  | > 100 |  | > 100 |  |  |  | > 100 |  | > 100 |  | > 100 |  | > 100
CN(C(=O)C12C3C4C1C1C2C3C41C(O)C(C)(C)C)C(C)(C)C (stereo not given) |  |  |  |  |  | > 100 |  | > 100 |  | > 100 |  |  |  | > 100 |  | > 100 |  | > 100 |  | > 100
CC[C@H]1CN(C)[C@H]2Cc3c([nH]c4ccccc34)C(=O)C[C@H]1C2C(=O)OC (stereo not given in full) |  | > 100 |  | > 100 |  | > 100 |  | > 100 |  | > 100 |  | > 100 |  | > 100 |  | > 100 |  | > 100 |  | 
O=C(Nc1ccc(Nc2ccncc2)cc1)c1ccc(Nc2ccnc3ccc([N+](=O)[O-])cc23)cc1[N+](=O)[O-] | 35.6 | > 100 | 12.8 | > 100 |  |  | 21.9 | > 100 | 7.33 | > 64.1 | 6.39 | 34.9 | 23.7 | > 100 | 26.8 | > 55.5 |  |  | 36.4 | > 100
CC(O)C(NC(=O)c1ccccc1)C(=O)N(Cc1ccccc1)Cc1ccccc1 (stereo not given) |  | > 100 |  |  |  | > 100 |  | > 100 |  | > 100 |  |  |  |  |  | > 100 |  | > 100 |  | > 100
Fc1cccc(Cl)c1Cn1c(-c2c(F)cccc2Cl)nc2ccccc21 | 16.4 | 42.9 | 18.7 | 54.4 |  |  | 19.4 | 53.9 | 12.4 | 28.4 | 13.9 | 62.9 | 34.4 | > 100 | 16.8 | 38 | 8.29 | 24.7 | 10.1 | > 100
COc1cc(-c2nc(-c3ccc(-c4nc5ccc(F)cc5[nH]4)cc3)no2)cc(OC)c1OC | 3.15 | 12.8 | 2.49 | 8.26 | 4.21 | 13.4 | 3.23 | 10.5 | 2.51 | 6.3 | 2.72 | 7.46 |  |  | 3.61 | 16.1 | 2.32 | 6.52 |  | 
Cc1cccc(C(C)C)c1NC(=O)CCl |  | > 100 |  |  |  | > 100 |  | > 100 |  | > 100 |  |  |  | > 100 |  | > 100 |  | > 100 |  | > 100
